≈ marks a conversion by molar mass, not a printed value. Like-named read-outs stand apart in the source and are kept apart here. Values belong to the compound of their own block, whether it stands above or below them.
How the values were obtained:
C. neoformans [1] = test: Broth microdilution susceptibility testing (CLSI M27-A3); format: cell-based, Cryptococcus neoformans; conditions: for MIC: Cryptococcus neoformans
Text: (§1) C. neoformans strains H99, DUMC 118.00, and DUMC 158.03 and C. gattii strains R272 and RSA-MW-3515 were obtained from Duke University. C. albicans 90028, A. fumigatus MYA3626, C. neoformans 14116, C. neoformans 76484, and the pathogenic Cryptococcus reference strains panel (ATCC MP-11) were obtained from the American Type Culture Collection (ATCC; Manassas, VA, USA). The ATCC MP-11 panel consists of strains representing eight molecular types and three subtypes of C. neoformans and C. gattii.
(§2) To establish the antimicrobial activity of the APX001A analogs, broth microdilution susceptibility testing was performed according to Clinical and Laboratory Standards Institute (CLSI) guidelines M27-A3 ([47]) for yeasts and M38-A2 for molds ([48]). APX001A and analogs were first diluted in DMSO to obtain intermediate dilutions. These were further diluted in microtiter plates to obtain a final concentration of 2 to 0.002 μg/ml. One microliter of DMSO was added to the no-drug control wells. The solutions were mixed on a plate shaker for 10 min, and the plates were incubated at 35°C for 40 to 48 h (C. albicans, A. fumigatus) and 72 h (C. neoformans). The minimum concentration that led to a 50% reduction in fungal growth compared to that for the control (determined with the aid of a reading mirror) was determined as the MIC for C. albicans and C. neoformans. The minimum concentration that led to the shortening of hyphae compared to the hyphal growth in DMSO control wells was determined as the minimum effective concentration (MEC) for A. fumigatus (as read for the echinocandins). The use of the MIC and MEC endpoints for APX001A (formerly E1210) against yeasts and molds, respectively, has been described previously ([19][–][21]). For the cryptococcal synergy studies, APX001A and APX2020 MIC values were read at 50% inhibition.

C. gattii = test: as above; format: cell-based; conditions: Cryptococcus gattii
Text: as §1, §2

C. albicans 90028 = test: as above; format: cell-based, Candida albicans; conditions: Candida albicans, 90028; read-out: MIC, C. albicans 90028
Text: as §1, §2

A. fumigatus MYA3626 = test: Broth microdilution susceptibility testing for molds (CLSI M38-A2); format: cell-based; conditions: Aspergillus fumigatus, MYA3626; read-out: MIC or MEC for A. fumigatus MYA3626
Text: as §1, §2

[2] = tested on: FLC-susceptible and FLC-nonsusceptible/resistant strains of C. neoformans and C. gattii; test: Broth microdilution, summary over the 18-strain Cryptococcus collection; format: cell-based, Cryptococcus neoformans and Cryptococcus gattii; conditions: 18 strains of C. neoformans and C. gattii
Protocol: as §2, with “The minimum concentration that led to the shortening of hyphae compared to the hyphal growth in DMSO control wells was determined as the minimum effective concentration (MEC) for A. fumigatus (as read for the echinocandins).” left out

C. neoformans H99 = test: Microtiter checkerboard synergy with FLC; format: cell-based, Cryptococcus neoformans; conditions: in combination with FLC, MIC read at 50% inhibition, synergy FICI < 0.5
Protocol: An important consideration for developing a new treatment for CM is the potential for inclusion in combination therapy. We evaluated the synergy of APX001A and APX2020 in combination with FLC using standard microtiter dilution techniques ([33]). […] Importantly, no antagonism was observed.
as §2, with “The use of the MIC and MEC endpoints for APX001A (formerly E1210) against yeasts and molds, respectively, has been described previously ([19][–][21]). For the cryptococcal synergy studies, APX001A and APX2020 MIC values were read at 50% inhibition.” left out

[3] = Single-dose mouse pharmacokinetics of prodrugs with or without ABT; format: in vivo; conditions: for AUC: male, CD-1, mouse, plasma, 26 mg/kg
Protocol: The area under the curve (AUC) was calculated from time zero to the time of the last measurable concentration. The active metabolite concentrations in plasma (APX001A, APX2039, APX2020, and APX2041) were determined by liquid chromatography-tandem mass spectrometry. PK parameters were determined using Phoenix WinNonlin (v7.0) software and a noncompartmental model.

C. neoformans [4] = tested on: C. neoformans; design: method as in PMID 23740727; conditions: 46 strains of C. neoformans, global study; cited from earlier work

- MIC (C. neoformans [1]; 72 h, Table 1, 50% growth inhibition for FLC, caspofungin and APX compounds, 100% for AMB, 72 h, read-out: MIC, C. neoformans H99): 0.031 µg/mL
- MIC (C. neoformans [1]; C. neoformans isolate 14116, read-out: MIC): 0.031 µg/mL
- MIC (C. neoformans [1]; C. neoformans isolate 76484, read-out: MIC): 0.063 µg/mL
- MIC (C. neoformans [1]; C. neoformans isolate DUMC 118.00 (FLC resistant), read-out: MIC): 0.063 µg/mL
- MIC (C. neoformans [1]; C. neoformans isolate DUMC 158.03 (FLC resistant), read-out: MIC): 0.25 µg/mL
- MIC (C. neoformans [1]; C. neoformans isolate MYA-4564, read-out: MIC): 0.063 µg/mL
- MIC (C. neoformans [1]; C. neoformans isolate MYA-4565, read-out: MIC): 0.25 µg/mL
- MIC (C. neoformans [1]; C. neoformans isolate MYA-4566, read-out: MIC): 0.125 µg/mL
- MIC (C. neoformans [1]; C. neoformans isolate MYA-4567, read-out: MIC): 0.063 µg/mL
- MIC (C. neoformans [1]; Table 2, C. neoformans isolate H99, read-out: MIC): 0.031 µg/mL
- MIC (C. gattii; C. gattii isolate MYA-4093, read-out: MIC): 0.125 µg/mL
- MIC (C. gattii; C. gattii isolate MYA-4094, read-out: MIC): 0.25 µg/mL
- MIC (C. gattii; C. gattii isolate MYA-4560 (first listing, r17), read-out: MIC): 0.063 µg/mL
- MIC (C. gattii; C. gattii isolate MYA-4560 (second listing, r21), read-out: MIC): 0.063 µg/mL
- MIC (C. gattii; C. gattii isolate MYA-4561, read-out: MIC): 0.125 µg/mL
- MIC (C. gattii; C. gattii isolate MYA-4562, read-out: MIC): 0.125 µg/mL
- MIC (C. gattii; C. gattii isolate MYA-4563, read-out: MIC): 0.125 µg/mL
- MIC (C. gattii; C. gattii isolate MYA-4877, read-out: MIC): 0.063 µg/mL
- MIC (C. gattii; C. gattii isolate RSA-MW-3615 (FLC resistant), read-out: MIC): 0.031 µg/mL
- MIC (C. gattii; Table 1, 50% growth inhibition for FLC, caspofungin and APX compounds, 100% for AMB, read-out: MIC, C. gattii WM276): 0.031 µg/mL
- MIC (C. albicans 90028): 0.016 µg/mL
- MIC (A. fumigatus MYA3626): 0.031 µg/mL
- MIC90 [2]: 0.25 µg/mL
- MIC ([2]; read-out: Geometric mean MIC): 0.085 µg/mL
- Ratio of AUC with ABT/AUC without ABT, i.p. dosing ([3]; 26 mg/kg prodrug): 8.3
- Ratio of AUC with ABT/AUC without ABT, p.o. dosing ([3]; 26 mg/kg prodrug): 9.3
- AUC ([3]; intraperitoneal, AUC of analyte after 26 mg/kg prodrug, 100 mg/kg ABT orally 2 h before, read-out: Avg AUC resulting from 26-mg/kg dose, i.p. dosing + ABT): 35600 ± 28200 ng·h/mL
- AUC ([3]; ip, AUC of analyte after 26 mg/kg of the corresponding prodrug, male CD-1 mice, no ABT, read-out: Avg AUC resulting from 26-mg/kg dose, i.p. dosing): 4310 ± 960 ng·h/mL
- AUC ([3]; po, AUC of analyte after 26 mg/kg prodrug, 100 mg/kg ABT orally 2 h before, read-out: Avg AUC resulting from 26-mg/kg dose, p.o. dosing + ABT): 41900 ± 6410 ng·h/mL
- AUC ([3]; po, AUC of analyte in plasma after 26 mg/kg of the corresponding prodrug, male CD-1 mice, no ABT, read-out: Avg AUC resulting from 26-mg/kg dose, p.o. dosing): 4490 ± 2320 ng·h/mL
SMILES: Nc1ncccc1-c1cc(Cc2ccc(OCc3ccccc3)cc2)no1 [APX2020]
- fold improved anti-C. neoformans H99 activity vs APX001A (C. neoformans [1]; from MIC values of Table 1): 8 fold
- fractional inhibitory concentration index (FICI) (C. neoformans H99): 0.37

SMILES: C[C@@H](c1nc(-c2ccc(C#N)cc2)cs1)[C@](O)(Cn1cncn1)c1cc(F)ccc1F [isavuconazole]
- MIC90 (C. neoformans [4]): 0.06 µg/mL (≈ 0.137 µM)
